Reference: patent EP0667959B1, “Methods for identifying inhibitors of the production of beta-amyloid peptide” (ELAN PHARMACEUTICALS, INC., priority 1992, dated 1994)

Assays:
[1] = target: Monoclonal antibodies to the junction region of βAP; experiment: Saturation analysis (RIA): displacement of 125I-labeled βAP1-28 from junction-region hybridoma clones by unlabeled peptide; type: binding, mice
Procedure: The RIA method used to screen serum bleeds and fusion hybridoma supernatants was based upon a method developed by Wang et al. (1977) J. Immunol. Methods 18:157-164. Briefly, the supernatant (or serum) was incubated overnight at room temperature on a rotator with ^125I-labeled βAP1-28 and Sepharose® 4B beads to which sheep anti-mouse IgG had been coupled via cyanogen bromide. The beads from each well were harvested onto glass fiber filter discs with a cell harvester and washed several times with PBS. The filter discs were then transferred to gamma tubes and the bound radioactivity was counted in a gamma counter.
Based on results of the above assays, several clones were expanded into 24 well plates. These clones were further characterized by saturation analysis. Supernatants at the 50% titer point (as determined by the RIA method described above) were added to wells containing Sepharose®-sheep anti-mouse IgG beads, a constant amount of ^125I-labeled βAP1-28, and varying amounts of unlabeled βAP13-28 or βAP17-28. The concentration of cold peptide for 50% inhibition was determined for each antibody. […] The 50% inhibition point for βAP13-28 ranged from 10-80 ng/well. The clones were also characterized based on reactivity in Western blots. Based on titer point, sensitivity (as determined by the 50% inhibition point), and reactivity on Western blot, several clones were produced in ascites.

[2] = tested on: 266 capture antibody and 10D5 reporter antibody; experiment: βAP cross-reactivity in 266/10D5 sandwich ELISA; type: binding; settings: molecule at 1-1000 ng/ml
Procedure: Monoclonal antibody 266 was diluted to a concentration of 5 µg/ml, and monoclonal antibody 067 to 10 µg/ml in a buffer containing NaH2PO4·7H2O, 26.2 g/L; NaN3, 1 g/L; pH 8.3. One hundred µl/well of this solution was then dispensed in a 96 well polystyrene transparent COSTAR plate and incubated overnight at room temperature. Following coating, the remaining solution was aspirated and the non-specific antibody binding sites were blocked with 0.25% human serum albumin (HSA) dissolved in a buffer containing NaH2PO4·H2O, 1 g/L; Na2HPO4·7H2O, 10.8 g/L; NaN3, 0.5 g/L and sucrose, 25 g/L; pH 7.4. These coated/blocked plates were used immediately or dried in a desiccator and stored in a dry container at 4°C for a maximum of 5 days.
Calibrators containing known amounts of βAP and samples from various bodily or extra bodily fluids were then added to the plate at 100 µl/well. The samples were added undiluted or diluted in a buffer containing NaH2PO4·H2O, 0.2 g/L; Na2HPO4·7H2O, 2.16 g/L; NaN3, 0.5 g/L; BSA (globulin free) 6 g/L; Triton X-405, 0.5 mL/L; NaCl, 8.5 g/L; pH 7.4. Samples and calibrators were incubated in the wells for 1 hour at room temperature, subsequently aspirated, and the wells washed with 300 µl/well of a solution containing NaCl, 80 g/L; KCl, 3.8 g/L; Tris base, 5.85 g/L; Tris HCl, 31.75 g/L; and 0.05% Tween® 20; pH 7.5 (TBS).
NHS-biotin (15 mg) was dissolved in 0.25 ml dimethylsulfoxide, and 10 µl of this solution was added to 1 mg of 10D5 or 6C6 antibody suspended in 1 ml of sodium carbonate solution, 50 mM, pH 8.5. The mixture was incubated in the dark for 1½ hours at room temperature and then dialyzed against phosphate buffered saline, pH 7.4 for 48 hours at 4°C, to produce biotinylated reporter antibody. One hundred µl/well of the biotinylated reporter antibody (10D5 or 6C6) diluted to 3 µg/ml was then added to each well and incubated for another hour at room temperature. The antibody diluent consisted of Trizma base, 1.21 g/L; NaCl, 29.22 g/L; NaN3, 1.5 g/L, Triton X 405, 0.5 ml/L; PEG (Mw 3350), 40 g/L; Mg Cl2·6H2O, 0.095 g/L; ZnCl2, 0.014 g/L; fetal bovine serum 100 ml/L; and BSA 2.5 g/L, pH 7.4.
After 1 hour incubation at room temperature with the reporter antibody (10D5 or 6C6) the supernatant was aspirated and the wells were washed three times with 300 µl/well of TBS. Streptavidin alkaline phosphatase (100 µl/well, diluted 1:2000 in the conjugate diluent buffer) was added and incubated for another hour at room temperature. […] Fluorescent substrate (4-methyl-umbellipheryl phosphate in 2-amino-2-methyl […] buffer; pH 9.5; (100 µl/well) was added) and fluorescence read and expressed as relative fluorescent units ([…]) after 15 minutes using a Cytofluor 2300 from Millipore, with 360/40 excitation filter and 460/40 emission filter. […]

Substance	%Cross-Reactivity [2] [%]	also measured
βAP13-28 (HHQKLVFFAEDVGSNK; Amyloid-beta protein 42; UniProt P05067 684-699, looked up, fragment)		concentration of cold peptide for 50% inhibition ([1]; range over the clones, supernatants at the 50% titer point, 125I-labeled βAP1-28): 10-80 ng/well
βAP17-28 (LVFFAEDVGSNK; Amyloid-beta protein 42; UniProt P05067 688-699, looked up, fragment)		inhibition of 125I-labeled βAP1-28 binding ([1]; at 100 ng/well, any clones): no inhibition
βAP Fragment 11-18 (EVHHQKLV; Amyloid-beta protein 42; UniProt P05067 682-689, looked up, fragment)	0	
βAP Fragment 13-18 (HHQKLV; Amyloid-beta protein 42; UniProt P05067 684-689, looked up, fragment)	0	
βAP Fragment 13-20 (HHQKLVFF; Amyloid-beta protein 42; UniProt P05067 684-691, looked up, fragment)	0.2	
βAP Fragment 15-20 (QKLVFF; Amyloid-beta protein 42; UniProt P05067 686-691, looked up, fragment)	0	
